≈ marks a conversion by molar mass, not a printed value. Where a SMILES comes first, the peptide text is derived from it. Bridges are numbered along the chain shown (N, C = ends). [ ]: non-standard residue; d: D form. The star is where a group is joined. X1 = CC[C@H](C)CCCCC(=O)*; Dab = NCC[C@H](N)C(=O)O
Legend:
Aspergillus niger = assay: Antifungal activity against Aspergillus niger ATCC 20057 assessed as reduction in fungal growth incubated overnight by broth dilution method; format: functional
Candida albicans = assay: Antifungal activity against Candida albicans ATCC 10231 assessed as reduction in fungal growth incubated overnight by broth dilution method; format: functional
[1] = Cytotoxicity against human HEp-2 cells assessed as reduction in cell viability incubated for 40 to 60 mins by resazurin dye based assay; conditions: time 40-60 min
[2] = Protein binding in human plasma assessed as free fraction at 0.5 mg/ml measured after 48 hrs by RP-HPLC analysis relative to control; format: ADME, cell-free
[3] = Protein binding in human plasma assessed as free fraction at 0.25 mg/ml measured after 48 hrs by RP-HPLC analysis relative to control; format: ADME, cell-free
[4] = Protein binding in human plasma assessed as unbound fraction at 0.25 mg/ml measured after 24 hrs by RP-HPLC analysis (Rvb= 0.147 mg/ml); format: ADME, cell-free
[5] = Protein binding in human plasma at 0.25 mg/ml measured after 24 hrs by RP-HPLC analysis relative to control; format: ADME, cell-free; conditions: read-out: PPB (converted)
[6] = Protein binding in human plasma at 0.5 mg/ml measured after 24 hrs by RP-HPLC analysis relative to control; format: ADME, cell-free; conditions: read-out: PPB (converted)
[7] = Aqueous solubility of compound at up to 100 mg/ml; format: physicochemical; conditions: buffer
[8] = Protein binding in human plasma assessed as unbound fraction at 0.1 mg/ml measured after 48 hrs by RP-HPLC analysis (Rvb= 0.069 mg/ml); format: ADME, cell-free
[9] = Protein binding in human plasma assessed as unbound fraction at 0.05 mg/ml measured after 24 hrs by RP-HPLC analysis (Rvb= 0.014 mg/ml); format: ADME, cell-free
[10] = Stability of compound in human plasma assessed as retention time at 0.5 mg/ml measured after 6 hrs by HPLC analysis; format: ADME, cell-free
[11] = Hemolytic activity in human RBC at 0.25 mg/ml measured after 1 hr; format: ADME, tissue-based; conditions: erythrocyte
[12] = Protein binding in human plasma assessed as unbound fraction at 0.25 mg/ml measured after 48 hrs by RP-HPLC analysis (Rvb= 0.147 mg/ml); format: ADME, cell-free
[13] = Protein binding in human plasma assessed as free fraction at 0.1 mg/ml measured after 48 hrs by RP-HPLC analysis relative to control; format: ADME, cell-free
[14] = Protein binding in human plasma assessed as unbound fraction at 0.1 mg/ml measured after 24 hrs by RP-HPLC analysis (Rvb= 0.069 mg/ml); format: ADME, cell-free
[15] = Protein binding in human plasma assessed as unbound fraction at 0.5 mg/ml measured after 48 hrs by RP-HPLC analysis (Rvb= 0.211 mg/ml); format: ADME, cell-free
[16] = Hemolytic activity in human RBC at 0.5 mg/ml measured after 1 hr relative to control; format: ADME, tissue-based, Erythrocyte; conditions: red blood cells, read-out: Activity
[17] = Protein binding in human plasma assessed as unbound fraction at 0.5 mg/ml measured after 24 hrs by RP-HPLC analysis (Rvb= 0.211 mg/ml); format: ADME, cell-free
[18] = Stability of compound in human plasma assessed as retention time at 0.5 mg/ml measured after 48 hrs by HPLC analysis; format: ADME, cell-free

Clc1ccc(COC(Cn2ccnc2)c2ccc(Cl)cc2Cl)cc1 (configuration not stated) [ECONAZOLE]
MIC (Aspergillus niger): > 35 µg/mL
MIC (Candida albicans): > 35 µg/mL

C[C@@H]1[C@H](O)[C@@H](C)/C=C/C=C/C=C/C=C/C=C/C=C/C=C/[C@H](O[C@@H]2O[C@H](C)[C@@H](O)[C@H](N)[C@@H]2O)C[C@@H]2O[C@](O)(C[C@@H](O)C[C@@H](O)[C@H](O)CC[C@@H](O)C[C@@H](O)CC(=O)O[C@H]1C)C[C@H](O)[C@H]2C(=O)O [AMPHOTERICIN B]
MIC (Aspergillus niger): 31.5 µg/mL (≈ 34.1 µM)
CC50 [1]: 87 µg/mL (≈ 94.1 µM)
MIC (Candida albicans): 5 µg/mL (≈ 5.41 µM)

CC(=O)O.C[C@@H]1[C@H](O)[C@@H](C)/C=C/C=C/CC/C=C/C=C/C=C/C=C/[C@H](O[C@@H]2O[C@H](C)[C@@H](O)[C@H](N)[C@@H]2O)C[C@@H]2O[C@](O)(C[C@@H](O)[C@H](O)CC[C@@H](O)C[C@@H](O)C[C@@H](O)CC(=O)O[C@H]1C)C[C@H](O)[C@H]2C(=O)NCCO
fraction unbound at 48 h, 0.5 mg/ml [2]: 0.274
fraction unbound at 48 h, 0.25 mg/ml [3]: 0.4
Cp(f) [4]: 120 µg/mL
fraction unbound at 24 h, 0.25 mg/ml [5]: 0.48
fraction unbound at 24 h, 0.5 mg/ml [6]: 0.34
solubility [7]: Soluble
MIC (Aspergillus niger): 23.6 µg/mL
Cp(f) [8]: 30 µg/mL
Cp(f) [9]: 13 µg/mL
Retention_time [10]: 9.4 min
Activity [11]: Non-Toxic
Cp(f) [12]: 100 µg/mL
fraction unbound at 48 h, 0.1 mg/ml [13]: 0.3
Cp(f) [14]: 42 µg/mL
Cp(f) [15]: 137 µg/mL
hemolysis at 1 h, 0.5 mg/ml [16]: 62%
CC50 [1]: 149 µg/mL
MIC (Candida albicans): 5 µg/mL
Cp(f) [17]: 168 µg/mL
Retention_time [18]: 6.5 min

NYSTATIN [listing 1 of 2 here]
Activity [11]: Toxic

CC[C@H](C)CCCCC(=O)N[C@@H](CCN)C(=O)N[C@H](C(=O)N[C@@H](CCN)C(=O)N[C@H]1CCNC(=O)[C@H]([C@@H](C)O)NC(=O)[C@H](CCN)NC(=O)[C@H](CCN)NC(=O)[C@H](CC(C)C)NC(=O)[C@@H](Cc2ccccc2)NC(=O)[C@H](CCN)NC1=O)[C@@H](C)O (X1-[Dab]T[Dab][Dab][Dab][dF]L[Dab][Dab]T; lactam 4-C)
MIC (Aspergillus niger): > 35 µg/mL
MIC (Candida albicans): > 35 µg/mL

NYSTATIN [listing 2 of 2 here]
MIC (Aspergillus niger): 22.5 µg/mL
MIC (Candida albicans): 10 µg/mL

CC(=O)O.COC(=O)[C@H]1[C@@H]2C[C@@H](O[C@@H]3O[C@H](C)[C@@H](O)[C@H](N)[C@@H]3O)/C=C/C=C/C=C/C=C/CC/C=C/C=C/[C@H](C)[C@@H](O)[C@@H](C)[C@H](C)OC(=O)C[C@H](O)C[C@H](O)C[C@H](O)CC[C@@H](O)[C@H](O)C[C@](O)(C[C@@H]1O)O2
MIC (Aspergillus niger): > 35 µg/mL
MIC (Candida albicans): 30 µg/mL

Reference: ChEMBL document CHEMBL5029198, “Water-Soluble Nystatin and Derivative” (ACS Med Chem Lett, 2022)
